In one data set the test system is K562. Put plainly: Cytotoxicity against human K562 cells assessed as cell viability after 72 hrs by celltiter-blue assay. The class given is functional, cell-based. Particulars: K562, 72 h. (Resazurin is reduced to fluorescent resorufin, in cell work by metabolically active cells.)
The subject of the next data set is MCF7. The experiment in a line: Cytotoxicity against human MCF7 cells assessed as cell viability after 72 hrs by celltiter-blue assay. The class given is functional, cell-based. Particulars: MCF7, 72 h.
A further data set relates to A549. The experiment in a line: Cytotoxicity against human A549 cells assessed as cell viability after 72 hrs by celltiter-blue assay. Format: functional, cell-based. The settings on record: A549, 72 h.
Data set [1] in a line: Chemical stability of the compound in DMSO by NMR analysis. The class given is physicochemical.

A value given as a limit tells only on which side of the number the result lay.

Results on twelve compounds are retold here after ChEMBL document CHEMBL2203105, “Structure-related cytotoxic activity of derivatives from kulokekahilide-2, a cyclodepsipeptide in Hawaiian marine mollusk” (Bioorg Med Chem Lett, 2012).

Take `C/C=C(\C)[C@H]1OC(=O)[C@@H](C)NC(=O)[C@H]([C@@H](C)CC)NC(=O)CN(C)C(=O)[C@@H](Cc2ccccc2)N(C)C(=O)[C@H](C)NC(=O)[C@@H](CC(C)C)OC(=O)/C(C)=C/C[C@H](OC(=O)c2ccccc2)[C@@H]1C`: the 50% inhibitory concentration (IC50) with K562 amounted to 1.8 nM; with MCF7, 2.9 nM; in the data set on A549, 0.00058 nM.
Taken in the same sequence, the figures for `C/C=C(\C)[C@H]1OC(=O)[C@@H](C)NC(=O)[C@H]([C@@H](C)CC)NC(=O)CN(C)C(=O)[C@@H](Cc2ccccc2)N(C)C(=O)[C@@H](C)NC(=O)[C@@H](CC(C)C)OC(=O)/C(C)=C/C[C@H](OCSC)[C@@H]1C` were 1190 nM, more than 10000 nM and 4340 nM.
With `C/C=C(\C)[C@H]1OC(=O)[C@@H](C)NC(=O)[C@H]([C@@H](C)CC)NC(=O)CN(C)C(=O)[C@@H](Cc2ccc(Cl)cc2)N(C)C(=O)[C@H](C)NC(=O)[C@@H](CC(C)C)OC(=O)/C(C)=C/C[C@H](O)[C@@H]1C`, the values for the 50% inhibitory concentration (IC50) with K562, with MCF7 and in the data set on A549 were 1.1e-05 nM, 0.003 nM and 1e-05 nM, respectively.
Taken in the same sequence, the figures for `C/C=C(\C)[C@H]1OC(=O)[C@@H](C)NC(=O)[C@H]([C@@H](C)CC)NC(=O)CN(C)C(=O)[C@@H](Cc2ccccc2)N(C)C(=O)[C@H](C)NC(=O)[C@@H](CC(C)C)OC(=O)/C(C)=C/C[C@H](OCSC)[C@@H]1C` were 0.0063 nM, 6.3 nM and 0.00019 nM.
The like results for `CC[C@H](C)[C@H](NC(=O)CN(C)C(=O)[C@@H](Cc1ccccc1)N(C)C(=O)[C@H](C)NC(=O)[C@H](O)CC(C)C)C(=O)O` were, in that order, more than 10000 nM, more than 10000 nM and more than 10000 nM.
`C/C=C(\C)[C@@H](O)[C@@H](C)[C@@H]1C/C=C(\C)C(=O)O[C@H](CC(C)C)C(=O)N[C@@H](C)C(=O)N(C)[C@H](Cc2ccccc2)C(=O)N(C)CC(=O)N[C@@H]([C@@H](C)CC)C(=O)N[C@H](C)C(=O)O1`: the Stability result in data set [1] is on record as “Stable”. Moreover, the IC50 was 0.012 nM with K562, 0.29 nM in the data set on MCF7 and 0.0014 nM in the data set on A549.
In the case of `C/C=C(\C)[C@@H](O)[C@@H](C)[C@@H]1C/C=C(\C)C(=O)O[C@H](CC(C)C)C(=O)N[C@H](C)C(=O)N(C)[C@H](Cc2ccccc2)C(=O)N(C)CC(=O)N[C@@H]([C@@H](C)CC)C(=O)N[C@H](C)C(=O)O1`, the IC50 turned out to be 925 nM with K562, 3690 nM with MCF7 and 1080 nM in the data set on A549.
Take `C/C=C(\C)[C@H]1OC(=O)[C@@H](C)NC(=O)[C@H]([C@@H](C)CC)NC(=O)CN(C)C(=O)[C@@H](Cc2ccc(Cl)cc2)N(C)C(=O)[C@H](C)NC(=O)[C@@H](CC(C)C)OC(=O)/C(C)=C/C[C@H](OCSC)[C@@H]1C`: the concentration for half-maximal inhibition (IC50) was found to be 7.1 nM in the data set on K562, 6.5 nM in the data set on MCF7 and 0.73 nM with A549.
Regarding `C/C=C(\C)[C@H]1OC(=O)[C@@H](C)NC(=O)[C@H]([C@@H](C)CC)NC(=O)CN(C)C(=O)[C@@H](Cc2ccccc2)N(C)C(=O)[C@@H](C)NC(=O)[C@@H](CC(C)C)OC(=O)/C(C)=C/C[C@H](O)[C@@H]1C`, the IC50 in the data set with K562 was 584 nM; in the data set on MCF7 it was 1640 nM; in the data set on A549 it was 1040 nM.
Taken in the same sequence, the figures for `C/C=C(\C)[C@@H](OC(=O)[C@@H](C)N)[C@@H](C)C(C/C=C(\C)C(=O)O[C@H](CC(C)C)C(=O)N[C@@H](C)C(=O)N(C)[C@H](Cc1ccccc1)C(=O)N(C)CC(=O)N[C@H](C(=O)O)[C@@H](C)CC)OCSC` (single isomer, unassigned) were more than 10000 nM, more than 10000 nM and more than 10000 nM.
Taken in the same sequence, the figures for `C/C=C(\C)[C@@H](O)[C@@H](C)[C@@H]1C/C=C(\C)C(=O)O[C@H](CC(C)C)C(=O)N[C@@H](C)C(=O)N(C)[C@H](Cc2ccc(Cl)cc2)C(=O)N(C)CC(=O)N[C@@H]([C@@H](C)CC)C(=O)N[C@H](C)C(=O)O1` were 0.000216 nM, 0.025 nM and 2e-05 nM.
Take `C/C=C(\C)[C@H]1OC(=O)[C@@H](C)NC(=O)[C@H]([C@@H](C)CC)NC(=O)CN(C)C(=O)[C@@H](Cc2ccccc2)N(C)C(=O)[C@H](C)NC(=O)[C@@H](CC(C)C)OC(=O)/C(C)=C/C[C@H](O)[C@@H]1C`: the Stability entry in data set [1] is given as “Stable”. For the same compound, the figures for the IC50 in the data set on K562, in the data set on MCF7 and with A549 were 0.0031 nM, 0.22 nM and 0.0021 nM, respectively.

By IC50 is commonly meant the concentration that gives 50% inhibition.
